Measurements taken from the supplement of paper PMC10307832.

How the values were obtained:
Assay in all cases: relative viability (nuclei count vs DMSO), 5 days (fraction); higher = more cells survive
Tivantinib + OSI-027 = compound: O=C1NC(=O)[C@@H](c2cn3c4c(cccc24)CCC3)[C@@H]1c1c[nH]c2ccccc12 [Tivantinib] + COc1cccc2cc(-c3nc([C@H]4CC[C@H](C(=O)O)CC4)n4ncnc(N)c34)[nH]c12 [OSI-027] (partner 0.5 µM)
Procedure, shortened: (§1)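 Five library-drug doses in √10 steps were combined with a fixed anchor-drug dose, or a single drug was given alone, by pin tool to lung cancer cell lines in 1536-well plates the day after seeding. Nuclei were stained and counted after 5 days. Relative viability is the nuclei count in treated wells over that in vehicle wells, taken as the median of duplicate plates.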

Crenolanib + Foretinib = compound: CC1(COc2ccc3c(c2)ncn3-c2ccc3cccc(N4CCC(N)CC4)c3n2)COC1 [Crenolanib] + COc1cc2c(Oc3ccc(NC(=O)C4(C(=O)Nc5ccc(F)cc5)CC4)cc3F)ccnc2cc1OCCCN1CCOCC1 [Foretinib] (partner 0.25 µM)
Procedure, shortened: as §1

Tivantinib + AZD7762 = compound: O=C1NC(=O)[C@@H](c2cn3c4c(cccc24)CCC3)[C@@H]1c1c[nH]c2ccccc12 [Tivantinib] + NC(=O)Nc1cc(-c2cccc(F)c2)sc1C(=O)N[C@H]1CCCNC1 [AZD7762] (partner 0.2 µM)
Procedure, shortened: as §1

Crenolanib + Lapatinib = compound: CC1(COc2ccc3c(c2)ncn3-c2ccc3cccc(N4CCC(N)CC4)c3n2)COC1 [Crenolanib] + CS(=O)(=O)CCNCc1ccc(-c2ccc3ncnc(Nc4ccc(OCc5cccc(F)c5)c(Cl)c4)c3c2)o1 [Lapatinib] (partner 2 µM)
Procedure, shortened: as §1

Cell Line	relative viability (Tivantinib + OSI-027; first compound 0.01 µM)	relative viability (Tivantinib + OSI-027; first compound 0.03162 µM)	relative viability (Tivantinib + OSI-027; first compound 0.1 µM)	relative viability (Tivantinib + OSI-027; first compound 0.3162 µM)	relative viability (Crenolanib + Foretinib; first compound 0.01 µM)	relative viability (Crenolanib + Foretinib; first compound 0.03162 µM)	relative viability (Crenolanib + Foretinib; first compound 0.1 µM)	relative viability (Crenolanib + Foretinib; first compound 0.3162 µM)	relative viability (Crenolanib + Foretinib; first compound 1 µM)	relative viability (Tivantinib + AZD7762; first compound 0.01 µM)	relative viability (Tivantinib + AZD7762; first compound 0.03162 µM)	relative viability (Tivantinib + AZD7762; first compound 0.1 µM)	relative viability (Tivantinib + AZD7762; first compound 0.3162 µM)	relative viability (Crenolanib + Lapatinib; first compound 0.01 µM)	relative viability (Crenolanib + Lapatinib; first compound 0.03162 µM)	relative viability (Crenolanib + Lapatinib; first compound 0.1 µM)	relative viability (Crenolanib + Lapatinib; first compound 0.3162 µM)	relative viability (Crenolanib + Lapatinib; first compound 1 µM)
201T	0.962	0.718	0.665	0.74	1.19	1.1	1.03	1.12	1.06	0.602	0.62	0.623	0.611	1	1.02	1.03	0.965	1.01
A549					0.996	0.894	0.891	1.04	1.01					1.12	1.1	0.948	1.23	1.1
A-427	0.556	0.413	0.487	0.456	1.05	0.969	1.14	1.1	1.09	0.792	0.829	0.749	0.651	0.996	0.998	1.04	1.06	1.06
ABC-1	0.586	0.422	0.538	0.603	1.43	0.889	1.13	1.12	1.46	0.8	0.912	0.708	0.685	1.23	1.02	1.28	1.1	1.23
BEN	0.323	0.269	0.278	0.339	0.84	0.44	0.659	0.819	0.656	0.705	0.535	0.617	0.581	0.808	0.552	0.746	0.685	0.68
CAL-12T	0.791	0.541	0.634	0.256	1.15	1.05	1.18	1.33	1.22	0.563	0.603	0.574	0.437	0.73	0.618	0.661	0.703	0.821
COR-L23	0.783	0.7	0.787	0.919	1	0.958	0.925	0.991	0.927					0.952	1.13	0.836	0.931	0.987
COR-L 105	0.838	0.378	0.581	0.363	0.972	1.18	0.848	1.32	1.05					0.353	0.403	0.345	0.37	0.335
Calu-6					0.881	0.774	0.828	0.956	0.976					0.996	1.02	1.05	1.27	1.06
ChaGo-K-1	0.662	0.482	0.607	0.549	0.952	0.942	0.922	0.894	0.84	0.781	0.871	0.862	0.861					
EBC-1					0.102	0.104	0.0945	0.106	0.115					0.212	0.213	0.22	0.202	0.215
EKVX	0.711	0.663	0.679		1	0.71	0.802	0.796	0.757	0.59	0.704	0.619	0.28	0.2	0.241	0.186	0.222	0.239
EMC-BAC-2	0.366	0.3	0.347	0.357	1.05	0.997	1.03	1.11	1.07	1.14	1.09	1.08	1.22	0.912	0.862	0.882	0.931	0.81
EPLC-272H	0.319	0.32	0.293	0.147	0.792	0.588	0.643	0.64	0.797	0.278	0.284	0.21	0.268		0.877	0.722	0.977	1.02
H3255	0.711	0.551	0.571		0.935	0.851	0.84	0.877	1.06	0.968	0.73	0.902		0.271	0.218	0.241	0.233	0.24
HARA	0.583	0.359	0.509	0.26	0.956	0.979	0.84	0.912	0.911	0.214	0.416	0.394	0.288	0.711	0.81	0.645	0.602	0.684
HCC-15	0.76	0.53	0.614	0.7	1.08	1.07	0.989	1.01	0.853	1.27	1.34	1.15	1.29	0.829	0.895	0.807	0.83	0.793
HCC-44	0.488	0.534	0.441	0.669						1.04	1.05	1.08	0.985	1.02	0.997	0.901	0.999	0.905
HCC-78	0.36	0.37	0.367	0.32	0.584	0.59		0.545	0.525	0.688	0.786	0.651	0.425	0.138	0.637	0.705	0.71	0.467
HCC-366	0.941	0.807	0.848	0.934	0.918	0.954	0.956	0.942	0.938	0.229	0.403	0.316	0.237	0.954	1.09	0.916	1.31	0.915
HCC-827	0.764	0.844	0.708	0.253	1.08	1.04	1.04	1.1	0.998	0.186	0.238	0.297		0.163	0.188	0.16	0.217	0.191
HOP-62	0.831	0.566	0.876	0.887	1.19	1.23	1.09	1.08	1.15	0.503	0.62	0.515	0.667	0.869	1	0.991	1.08	0.834

Cell Line	relative viability (Tivantinib + OSI-027; first compound 0.01 µM)	relative viability (Tivantinib + OSI-027; first compound 0.03162 µM)	relative viability (Tivantinib + OSI-027; first compound 0.1 µM)	relative viability (Tivantinib + OSI-027; first compound 0.3162 µM)	relative viability (Crenolanib + Foretinib; first compound 0.01 µM)	relative viability (Crenolanib + Foretinib; first compound 0.03162 µM)	relative viability (Crenolanib + Foretinib; first compound 0.1 µM)	relative viability (Crenolanib + Foretinib; first compound 0.3162 µM)	relative viability (Crenolanib + Foretinib; first compound 1 µM)	relative viability (Tivantinib + AZD7762; first compound 0.01 µM)	relative viability (Tivantinib + AZD7762; first compound 0.03162 µM)	relative viability (Tivantinib + AZD7762; first compound 0.1 µM)	relative viability (Tivantinib + AZD7762; first compound 0.3162 µM)	relative viability (Crenolanib + Lapatinib; first compound 0.01 µM)	relative viability (Crenolanib + Lapatinib; first compound 0.03162 µM)	relative viability (Crenolanib + Lapatinib; first compound 0.1 µM)	relative viability (Crenolanib + Lapatinib; first compound 0.3162 µM)	relative viability (Crenolanib + Lapatinib; first compound 1 µM)
IA-LM					1.37	1.1	1.08	1.22	1.3					0.741	0.951	0.732	0.978	1.51
LC-2-ad	0.851	0.738	0.816	0.573	1.1	1.1	0.858	0.971	0.823	0.776	0.681	0.817	0.758	1	0.922	0.982	1.05	0.992
LCLC-103H	0.471	0.425	0.41	0.414	0.947	0.88	0.874	0.826	0.622	0.808	0.702	0.684	0.793					
NCI-H441	0.517	0.608	0.498	0.471	1.13	1.05	0.775	0.951	0.958	1.04	1.22	1.11	1.03					
NCI-H520	0.318	0.221	0.261	0.261	0.671	0.89	0.651	0.724	0.746					0.664	0.848	0.88	0.85	0.778
NCI-H522	0.749	0.648	0.624	0.617						0.829	0.812	0.864	0.612					
NCI-H661	0.72	0.665	0.755	0.396	0.972	0.969	0.99	1.07	1.02					0.493	0.547	0.47	0.451	0.468
NCI-H1299					1.1	1.04	1.06	1.05	1.11					0.928	1.01	0.905	0.862	0.887
NCI-H1563	0.78	0.756	0.718	0.745	0.952	0.884	0.852	0.899	0.948					0.818	0.97	0.937	0.998	0.849
NCI-H1623	0.434	0.442	0.487		0.99	0.888	0.86	0.859	0.838									
NCI-H1648	0.254	0.259	0.238								0.61	0.767	0.479					
NCI-H1650	0.681	0.535	0.634	0.532	1.34	1.27	1.2	1.23	0.945					0.799	0.918	0.783	0.719	0.512
NCI-H1703					0.32	0.293	0.321	0.313	0.269	0.159	0.152	0.114	0.124	1.14	0.713	0.262	0.257	0.189
NCI-H1792	0.777	0.685	0.595	0.547						0.653		0.644	0.589	0.977	0.851	0.835	1.09	0.874
NCI-H2009	0.677	0.529	0.61	0.713	1.25	1.21	1.09	1.27	1.1					1.07	0.889	0.899	0.913	0.906
NCI-H2023	0.372	0.363	0.356	0.341	0.785	1.01	0.942	1.05	1.02					1.04	0.898	0.844	0.889	0.47
NCI-H2228		0.548	0.541	0.234	0.994	0.923	0.693	1.14	1.04					0.964	0.876	0.969	1.27	1.28
NCI-H2342	0.63	0.597	0.585	0.532	1.01	1.02	1	1.2	0.816	0.505	0.515	0.432	0.39					
SK-LU-1	0.364	0.342	0.381	0.363	0.802	0.779	0.538	0.964	0.905					0.911	0.917	0.694	0.921	0.958
SK-MES-1	0.668	0.435	0.554	0.482	1.05	0.876	0.974	0.936	1.14					0.449	0.504	0.422	0.467	0.458
SW 900	0.605	0.443	0.583	0.533	0.69	0.91	0.818	1.15	0.848	0.682	0.464	0.5	0.496					
SW 1573	0.636	0.612	0.562	0.556	1.04	0.918	0.943	0.9	0.966					1.01	1.06	1.3	1.18	1.1
